Our source for the EC50 values is patent US20080039499A1, “Chemical Compounds” (priority 2004, published 2008).

One may read the EC50 as the midpoint of the concentration-response curve.

In this assay the test system is MCP-1 Mediated Calcium Flux in THP-1 Cells. Nature of the assay: MCP-1 mediated calcium flux in THP-1 cells (FLIPR). In kind it is cell-based, human. The conditions noted are these: stimulation of THP-1 cells; from dose response curves; read-out: approximate EC50 of hMCP-1 for rise in [Ca2+]i. The protocol: a) MCP-1 Mediated Calcium Flux in THP-1 Cells
The human monocytic cell line THP-1 was grown in a synthetic cell culture medium RPMI 1640 supplemented with 10% foetal calf serum, 6 mM glutainine and Penicillin-Streptomycin (at 50 IU/ml penicillin, 50 μg streptomycin/ml, Gibco BRL). THP-1 cells were washed in assay buffer comprising of HBSS with Ca^2+ and Mg^2+ (without phenol red) (Gibco BRL)+20 mM HEPES+0.71 mg/ml Propenecid+2 mls/litre CaCl2 1M (BDH)+0.3 mg/ml BSA (Sigma) pH 7.4 and resuspended in the same buffer at a density of 1×10^6 cells/ml. The cells were then loaded with assay buffer+[…] FLUO-4 (molecular probes) for 40 min at 37° C., washed twice in assay buffer, and resuspended at 2×10^5 cells/ml. 100 μl of the cell suspension was added to the wells of black clear-bottomed 96 well plates, to give 2×10^4 cells/well. Cells were pelleted by centrifugation and washed with assay buffer. 100 ul of buffer+50 ul of compound was added to wells and incubated for 20 mins at (37° C.). Fluorescence was recorded using a FLIPR (FLuorometric Imaging Plate Reader—Molecular Devices). Cells were stimulated by addition of hMCP-1 to the wells.
Stimulation of THP-1 cells with hMCP-1 induced a rapid, transient rise in [Ca^2+]i in a specific and dose dependent manner. Dose response curves indicated an approximate EC50 of 4 nm. […]

With “hMCP-1: human Monocyte chemoattractant protein-1, a C—C chemokine and CCR2 ligand, used to stimulate THP-1 cells”, the EC50 was about 4 nM.
